Experimental data from PubChem BioAssay AID1845196 (Molecular Pharmacology Branch, DTP, NCI, 2023).

Test system: 292921-168-R tumor spheroid viability
Assay: Anticancer human tumor 292921-168-R patient-derived pancreatic carcinoma cell line growth inhibition
Details: spheroids with HUVEC and MSC; for IC50: curve of first compound; for viability, T/C: stronger effect = lower value
Procedure, shortened: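 Complex tumor spheroids combined malignant cells with endothelial cells and mesenchymal stem cells. DNA-damaging drugs and DNA repair inhibitors were tested alone and in combination, at half-log dilutions down from clinical Cmax (top 10 microM if Cmax unknown), 0.25% DMSO final.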

[1] = second compound 1 µM, first compound 0.00949 µM
[2] = second compound 1 µM, first compound 0.03 µM
[3] = second compound 1 µM, first compound 0.0949 µM
[4] = second compound 1 µM, first compound 0.3 µM
[5] = second compound 1 µM, first compound 0.949 µM
[6] = second compound 1 µM, first compound 3 µM
[7] = second compound 3.16 µM, first compound 0.00949 µM
[8] = second compound 3.16 µM, first compound 0.03 µM
[9] = second compound 3.16 µM, first compound 0.0949 µM
[10] = second compound 3.16 µM, first compound 0.3 µM
[11] = second compound 3.16 µM, first compound 0.949 µM
[12] = second compound 3.16 µM, first compound 3 µM
[13] = second compound 10 µM, first compound 0.00949 µM
[14] = second compound 10 µM, first compound 0.03 µM
[15] = second compound 10 µM, first compound 0.0949 µM
[16] = second compound 10 µM, first compound 0.3 µM
[17] = second compound 10 µM, first compound 0.949 µM
[18] = second compound 10 µM, first compound 3 µM
[19] = second compound 31.6 µM, first compound 0.00949 µM
[20] = second compound 31.6 µM, first compound 0.03 µM
[21] = second compound 31.6 µM, first compound 0.0949 µM
[22] = second compound 31.6 µM, first compound 0.3 µM
[23] = second compound 31.6 µM, first compound 0.949 µM
[24] = second compound 31.6 µM, first compound 3 µM
[25] = second compound 100 µM, first compound 0.00949 µM
[26] = second compound 100 µM, first compound 0.03 µM
[27] = second compound 100 µM, first compound 0.0949 µM
[28] = second compound 100 µM, first compound 0.3 µM
[29] = second compound 100 µM, first compound 0.949 µM
[30] = second compound 100 µM, first compound 3 µM
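Further: spheroids exposed to compounds for 7 days.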

| SMILES | IC50 (second compound 1 µM) | IC50 (second compound 3.16 µM) | IC50 (second compound 10 µM) | IC50 (second compound 31.6 µM) | IC50 (second compound 100 µM) | viability, T/C [1] | viability, T/C [2] | viability, T/C [3] | viability, T/C [4] | viability, T/C [5] | viability, T/C [6] | viability, T/C [7] | viability, T/C [8] | viability, T/C [9] | viability, T/C [10] | viability, T/C [11] | viability, T/C [12] | viability, T/C [13] | viability, T/C [14] | viability, T/C [15] | also measured |
| --- | --- | --- | --- | --- | --- | --- | --- | --- | --- | --- | --- | --- | --- | --- | --- | --- | --- | --- | --- | --- | --- |
| CNCc1ccc(-c2cc(-c3nc(-c4ccc(S(=O)(=O)C(C)C)cc4)cnc3N)on2)cc1 + Cn1nnc2c(C(N)=O)ncn2c1=O | 205 nM | 212 nM | 214 nM | 178 nM | 136 nM | 90% | 85.7% | 70.7% | 37.7% | 23.1% | 9.35% | 97.1% | 92.8% | 67.9% | 41.9% | 22% | 12% | 96.4% | 88.6% | 71.7% | viability, T/C [16]: 40.2%; viability, T/C [17]: 20.4%; viability, T/C [18]: 9.2%; viability, T/C [19]: 91.6%; viability, T/C [20]: 79.2%; viability, T/C [21]: 72.2%; viability, T/C [22]: 31.6%; viability, T/C [23]: 17.2%; viability, T/C [24]: 8.61%; viability, T/C [25]: 81.9%; viability, T/C [26]: 82.3%; viability, T/C [27]: 61.5%; viability, T/C [28]: 23.9%; viability, T/C [29]: 13.1%; viability, T/C [30]: 7.83% |
| Cc1sc2c(c1C)C(c1ccc(Cl)cc1)=NC(CC(=O)Nc1ccc(O)cc1)c1nnc(C)n1-2 (stereo not given) + Cn1nnc2c(C(N)=O)ncn2c1=O | 2430 nM | 1980 nM | 1910 nM | 1700 nM | 904 nM | 109% | 111% | 117% | 99.9% | 74.6% | 44.5% | 109% | 117% | 113% | 111% | 68.9% | 39.2% | 112% | 115% | 111% | viability, T/C [16]: 89%; viability, T/C [17]: 77.3%; viability, T/C [18]: 33.9%; viability, T/C [19]: 107%; viability, T/C [20]: 114%; viability, T/C [21]: 109%; viability, T/C [22]: 102%; viability, T/C [23]: 67.4%; viability, T/C [24]: 32.9%; viability, T/C [25]: 90.3%; viability, T/C [26]: 106%; viability, T/C [27]: 95.3%; viability, T/C [28]: 89.1%; viability, T/C [29]: 48.3%; viability, T/C [30]: 16.1% |
| Cn1ncnc1[C@H]1c2n[nH]c(=O)c3cc(F)cc(c23)N[C@@H]1c1ccc(F)cc1 + Cn1nnc2c(C(N)=O)ncn2c1=O | 393 nM | 439 nM | 143 nM | 19 nM | < 9.49 nM | 88.4% | 81.3% | 73.8% | 58.8% | 27.7% | 9.76% | 81.1% | 82% | 73% | 59.5% | 32% | 11.1% | 75.1% | 68.1% | 55.8% | viability, T/C [16]: 39.2%; viability, T/C [17]: 23.3%; viability, T/C [18]: 9.97%; viability, T/C [19]: 58.4%; viability, T/C [20]: 44.4%; viability, T/C [21]: 31.9%; viability, T/C [22]: 24%; viability, T/C [23]: 15.8%; viability, T/C [24]: 8.83%; viability, T/C [25]: 24.2%; viability, T/C [26]: 19.3%; viability, T/C [27]: 17.4%; viability, T/C [28]: 14.6%; viability, T/C [29]: 11.7%; viability, T/C [30]: 7.45% |
